Measured values as given in BindingDB's records for doi:10.1021/jm00061a004 (1993).

What was measured:
CYP2D6 = CYP2D6 (Homo sapiens, UniProt P10635); experiment: Apparent inhibitory constant (Ki) for Bufuralol 1'-hydroxylation by human liver microsomes; conditions: probe bufuralol (1'-hydroxylation)
Cytochrome P450 2D6 [1] = target: T1, Cytochrome P450 2D6 (Homo sapiens, UniProt P10635); experiment: Inhibitory constant for cytochrome P450 2D6
Cytochrome P450 2D6 [2] = target: T1, Cytochrome P450 2D6; experiment: Inhibition of partially purified cytochrome P450 2D6 1'-hydroxybufuralol formation

T1 sequence (P10635 whole entry): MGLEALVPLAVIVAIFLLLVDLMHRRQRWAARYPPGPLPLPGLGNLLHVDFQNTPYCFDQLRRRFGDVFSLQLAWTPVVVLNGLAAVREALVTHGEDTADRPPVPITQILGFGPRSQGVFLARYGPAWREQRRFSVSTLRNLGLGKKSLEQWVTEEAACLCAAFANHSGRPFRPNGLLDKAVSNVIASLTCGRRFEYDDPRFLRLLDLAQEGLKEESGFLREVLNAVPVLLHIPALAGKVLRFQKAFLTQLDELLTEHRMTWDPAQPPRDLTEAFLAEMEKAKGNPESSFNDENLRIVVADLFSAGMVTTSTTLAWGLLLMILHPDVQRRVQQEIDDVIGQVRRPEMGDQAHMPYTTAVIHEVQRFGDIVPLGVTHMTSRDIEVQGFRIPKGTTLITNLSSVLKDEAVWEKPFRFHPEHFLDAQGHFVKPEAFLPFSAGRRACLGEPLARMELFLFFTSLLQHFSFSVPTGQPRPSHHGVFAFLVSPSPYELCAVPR
CYP2D6, sequence (P10635 whole entry): as above

Structure (SMILES): COC(=O)C1=CO[C@@H](C)[C@H]2CN3CCc4c([nH]c5ccccc45)[C@@H]3C[C@H]12
- Ki (CYP2D6): 4.6 nM
- Ki (Cytochrome P450 2D6 [1]): 3.3 nM
- Ki (Cytochrome P450 2D6 [2]): 5.7 nM
